Test results reported in the NIST ThermoML archive (doi:10.1021/je800783a).
Numbers after ± are expanded uncertainties.

Assay: xn = mol fraction of the nth substance listed
Settings: 101 kPa, Liquid, Vibrating tube method

Compound: CCCn1cc[n+](C)c1.N[C@@H](CCC(=O)O)C(=O)[O-] + O
- mass density (283.15 K, x1 = 0.039): 1090.4 ± 1 kg/m3
- mass density (283.15 K, x1 = 0.0455): 1100.76 ± 1 kg/m3
- mass density (283.15 K, x1 = 0.0497): 1106.9 ± 1 kg/m3
- mass density (283.15 K, x1 = 0.0683): 1129.12 ± 1 kg/m3
- mass density (283.15 K, x1 = 0.0783): 1139.04 ± 1 kg/m3
- mass density (283.15 K, x1 = 0.0894): 1147.7 ± 1 kg/m3
- mass density (283.15 K, x1 = 0.0975): 1153.37 ± 1 kg/m3
- mass density (283.15 K, x1 = 0.1235): 1169.78 ± 1 kg/m3
- mass density (283.15 K, x1 = 0.1451): 1178.22 ± 1 kg/m3
- mass density (283.15 K, x1 = 0.1925): 1191.85 ± 1 kg/m3
- mass density (283.15 K, x1 = 0.239): 1201.76 ± 1 kg/m3
- mass density (283.15 K, x1 = 0.2888): 1208.1 ± 1 kg/m3
- mass density (283.15 K, x1 = 0.3294): 1211.85 ± 1 kg/m3
- mass density (283.15 K, x1 = 0.3767): 1215 ± 1.1 kg/m3
- mass density (283.15 K, x1 = 0.4265): 1218.6 ± 1.1 kg/m3
- mass density (283.15 K, x1 = 0.4713): 1220.69 ± 1.1 kg/m3
- mass density (283.15 K, x1 = 0.5112): 1221.72 ± 1.1 kg/m3
- mass density (283.15 K, x1 = 0.5427): 1223.07 ± 1.1 kg/m3
- mass density (288.15 K, x1 = 0.039): 1088.42 ± 1 kg/m3
- mass density (288.15 K, x1 = 0.0455): 1098.39 ± 1 kg/m3
- mass density (288.15 K, x1 = 0.0497): 1104.45 ± 1 kg/m3
- mass density (288.15 K, x1 = 0.0683): 1126.36 ± 1 kg/m3
- mass density (288.15 K, x1 = 0.0783): 1136.21 ± 1 kg/m3
- mass density (288.15 K, x1 = 0.0894): 1144.79 ± 1 kg/m3
- mass density (288.15 K, x1 = 0.0975): 1150.37 ± 1 kg/m3
- mass density (288.15 K, x1 = 0.1235): 1166.6 ± 1 kg/m3
- mass density (288.15 K, x1 = 0.1451): 1175.07 ± 1 kg/m3
- mass density (288.15 K, x1 = 0.1925): 1188.67 ± 1 kg/m3
- mass density (288.15 K, x1 = 0.239): 1198.15 ± 1 kg/m3
- mass density (288.15 K, x1 = 0.2888): 1204.86 ± 1 kg/m3
- mass density (288.15 K, x1 = 0.3294): 1208.49 ± 1 kg/m3
- mass density (288.15 K, x1 = 0.3767): 1211.68 ± 1.1 kg/m3
- mass density (288.15 K, x1 = 0.4265): 1214.72 ± 1.1 kg/m3
- mass density (288.15 K, x1 = 0.4713): 1217.33 ± 1.1 kg/m3
- mass density (288.15 K, x1 = 0.5112): 1218.47 ± 1.1 kg/m3
- mass density (288.15 K, x1 = 0.5427): 1220.26 ± 1.1 kg/m3
- mass density (293.15 K, x1 = 0.039): 1086.11 ± 1 kg/m3
- mass density (293.15 K, x1 = 0.0455): 1095.92 ± 1 kg/m3
- mass density (293.15 K, x1 = 0.0497): 1101.92 ± 1 kg/m3
- mass density (293.15 K, x1 = 0.0683): 1123.56 ± 1 kg/m3
- mass density (293.15 K, x1 = 0.0783): 1133.31 ± 1 kg/m3
- mass density (293.15 K, x1 = 0.0894): 1141.8 ± 1 kg/m3
- mass density (293.15 K, x1 = 0.0975): 1147.34 ± 1 kg/m3
- mass density (293.15 K, x1 = 0.1235): 1163.35 ± 1 kg/m3
- mass density (293.15 K, x1 = 0.1451): 1172.01 ± 1 kg/m3
- mass density (293.15 K, x1 = 0.1925): 1185.47 ± 1 kg/m3
- mass density (293.15 K, x1 = 0.239): 1194.83 ± 1 kg/m3
- mass density (293.15 K, x1 = 0.2888): 1201.46 ± 1 kg/m3
- mass density (293.15 K, x1 = 0.3294): 1205.08 ± 1 kg/m3
- mass density (293.15 K, x1 = 0.3767): 1208.49 ± 1.1 kg/m3
- mass density (293.15 K, x1 = 0.4265): 1211.93 ± 1.1 kg/m3
- mass density (293.15 K, x1 = 0.4713): 1213.9 ± 1.1 kg/m3
- mass density (293.15 K, x1 = 0.5112): 1215.18 ± 1.1 kg/m3
- mass density (293.15 K, x1 = 0.5427): 1216.93 ± 1.1 kg/m3
- mass density (298.15 K, x1 = 0.039): 1083.72 ± 1 kg/m3
- mass density (298.15 K, x1 = 0.0455): 1093.38 ± 1 kg/m3
- mass density (298.15 K, x1 = 0.0497): 1099.3 ± 1 kg/m3
- mass density (298.15 K, x1 = 0.0683): 1120.71 ± 1 kg/m3
- mass density (298.15 K, x1 = 0.0783): 1130.35 ± 1 kg/m3
- mass density (298.15 K, x1 = 0.0894): 1138.78 ± 1 kg/m3
- mass density (298.15 K, x1 = 0.0975): 1144.3 ± 1 kg/m3
- mass density (298.15 K, x1 = 0.1235): 1160.15 ± 1 kg/m3
- mass density (298.15 K, x1 = 0.1451): 1168.85 ± 1 kg/m3
- mass density (298.15 K, x1 = 0.1925): 1182.21 ± 1 kg/m3
- mass density (298.15 K, x1 = 0.239): 1191.61 ± 1 kg/m3
- mass density (298.15 K, x1 = 0.2888): 1197.83 ± 1 kg/m3
- mass density (298.15 K, x1 = 0.3294): 1201.85 ± 1 kg/m3
- mass density (298.15 K, x1 = 0.3767): 1205.25 ± 1.1 kg/m3
- mass density (298.15 K, x1 = 0.4265): 1209.67 ± 1.1 kg/m3
- mass density (298.15 K, x1 = 0.4713): 1210.64 ± 1.1 kg/m3
- mass density (298.15 K, x1 = 0.5112): 1211.78 ± 1.1 kg/m3
- mass density (298.15 K, x1 = 0.5427): 1213.92 ± 1.1 kg/m3
- mass density (303.15 K, x1 = 0.039): 1081.22 ± 1 kg/m3
- mass density (303.15 K, x1 = 0.0455): 1090.77 ± 1 kg/m3
- mass density (303.15 K, x1 = 0.0497): 1096.64 ± 1 kg/m3
- mass density (303.15 K, x1 = 0.0683): 1117.81 ± 1 kg/m3
- mass density (303.15 K, x1 = 0.0783): 1127.36 ± 1 kg/m3
- mass density (303.15 K, x1 = 0.0894): 1135.72 ± 1 kg/m3
- mass density (303.15 K, x1 = 0.0975): 1141.18 ± 1 kg/m3
- mass density (303.15 K, x1 = 0.1235): 1156.96 ± 1 kg/m3
- mass density (303.15 K, x1 = 0.1451): 1165.64 ± 1 kg/m3
- mass density (303.15 K, x1 = 0.1925): 1178.9 ± 1 kg/m3
- mass density (303.15 K, x1 = 0.239): 1188.36 ± 1 kg/m3
- mass density (303.15 K, x1 = 0.2888): 1194.59 ± 1 kg/m3
- mass density (303.15 K, x1 = 0.3294): 1198.55 ± 1 kg/m3
- mass density (303.15 K, x1 = 0.3767): 1201.91 ± 1 kg/m3
- mass density (303.15 K, x1 = 0.4265): 1206.45 ± 1.1 kg/m3
- mass density (303.15 K, x1 = 0.4713): 1207.32 ± 1.1 kg/m3
- mass density (303.15 K, x1 = 0.5112): 1208.42 ± 1.1 kg/m3
- mass density (303.15 K, x1 = 0.5427): 1210.64 ± 1.1 kg/m3
- mass density (308.15 K, x1 = 0.039): 1078.64 ± 1 kg/m3
- mass density (308.15 K, x1 = 0.0455): 1088.06 ± 1 kg/m3
- mass density (308.15 K, x1 = 0.0497): 1093.89 ± 1 kg/m3
- mass density (308.15 K, x1 = 0.0683): 1114.86 ± 1 kg/m3
- mass density (308.15 K, x1 = 0.0783): 1124.33 ± 1 kg/m3
- mass density (308.15 K, x1 = 0.0894): 1132.63 ± 1 kg/m3
- mass density (308.15 K, x1 = 0.0975): 1138.07 ± 1 kg/m3
- mass density (308.15 K, x1 = 0.1235): 1153.81 ± 1 kg/m3
- mass density (308.15 K, x1 = 0.1451): 1162.49 ± 1 kg/m3
- mass density (308.15 K, x1 = 0.1925): 1175.73 ± 1 kg/m3
- mass density (308.15 K, x1 = 0.239): 1185.05 ± 1 kg/m3
- mass density (308.15 K, x1 = 0.2888): 1191.36 ± 1 kg/m3
- mass density (308.15 K, x1 = 0.3294): 1195.3 ± 1 kg/m3
- mass density (308.15 K, x1 = 0.3767): 1198.71 ± 1 kg/m3
- mass density (308.15 K, x1 = 0.4265): 1203.15 ± 1.1 kg/m3
- mass density (308.15 K, x1 = 0.4713): 1203.95 ± 1.1 kg/m3
- mass density (308.15 K, x1 = 0.5112): 1205.15 ± 1.1 kg/m3
- mass density (308.15 K, x1 = 0.5427): 1207.34 ± 1.1 kg/m3
